Active and inactive are the calls of the source. The calls are words filed in the database; no cut-off is given here.
How the values were obtained:
Mus musculus [1] = experiment: Toxicity in Balb/c nude mouse xenografted with human A2780 cells assessed as abnormality in spleen at 7.5 mg/kg, ip once in every 2 days measured after 14 days by H and E staining based assay; assay type: organism-based; details: in vivo, 336 h
[2] = target: Mitotic checkpoint serine/threonine-protein kinase BUB1 beta (Homo sapiens) (UniProt O60566); experiment: Induction of BubR1 hyperphosphorylation in human HeLa cells by Western blot analysis; assay type: cell-based
Mitotic checkpoint serine/threonine-protein kinase BUB1 beta (Homo sapiens), sequence (O60566 whole entry): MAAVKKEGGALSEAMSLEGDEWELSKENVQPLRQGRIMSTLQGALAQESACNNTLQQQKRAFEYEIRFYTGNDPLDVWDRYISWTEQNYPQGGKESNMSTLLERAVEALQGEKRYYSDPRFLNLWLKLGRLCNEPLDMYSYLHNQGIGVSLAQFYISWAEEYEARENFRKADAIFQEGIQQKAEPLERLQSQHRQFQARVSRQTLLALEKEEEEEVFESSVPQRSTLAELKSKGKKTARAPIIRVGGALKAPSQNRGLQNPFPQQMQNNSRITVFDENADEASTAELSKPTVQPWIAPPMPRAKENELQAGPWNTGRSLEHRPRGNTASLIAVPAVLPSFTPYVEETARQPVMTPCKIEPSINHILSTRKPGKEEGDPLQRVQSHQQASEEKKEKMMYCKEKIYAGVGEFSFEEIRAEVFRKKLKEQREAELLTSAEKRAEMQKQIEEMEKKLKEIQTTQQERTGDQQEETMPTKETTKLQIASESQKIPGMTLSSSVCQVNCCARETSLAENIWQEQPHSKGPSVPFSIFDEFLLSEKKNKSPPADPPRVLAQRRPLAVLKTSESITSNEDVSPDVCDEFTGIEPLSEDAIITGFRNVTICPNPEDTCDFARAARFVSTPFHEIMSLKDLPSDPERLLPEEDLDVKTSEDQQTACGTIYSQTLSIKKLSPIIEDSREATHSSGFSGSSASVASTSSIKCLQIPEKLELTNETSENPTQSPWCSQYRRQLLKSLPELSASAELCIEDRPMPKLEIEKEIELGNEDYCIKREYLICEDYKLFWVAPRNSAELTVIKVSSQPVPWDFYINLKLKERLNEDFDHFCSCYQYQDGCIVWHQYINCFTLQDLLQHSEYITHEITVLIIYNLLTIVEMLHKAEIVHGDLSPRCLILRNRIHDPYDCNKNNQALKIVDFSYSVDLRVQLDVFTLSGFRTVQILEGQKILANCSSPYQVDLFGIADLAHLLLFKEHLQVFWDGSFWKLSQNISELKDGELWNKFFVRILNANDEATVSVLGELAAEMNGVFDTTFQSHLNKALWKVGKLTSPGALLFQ

MDA-MB-231 = experiment: Anticlonogenic activity against human MDA-MB-231 cells incubated for 48 hrs followed by replacement with fresh medium measured after 7 to 10 days by gentian violet staining based assay; assay type: functional, cell-based
[3] = Growth inhibition of HOSEC at 1 uM after 48 hrs by MTT assay relative to control; details: human, HOSEC cells; read-out: GI
Sus scrofa = species on record: Sus scrofa; experiment: Inhibition of pig brain tubulin polymerization measured every 1 min for 20 mins by spectrophotometric method
HeLa [4] = experiment: Inhibition of alpha-tubulin polymerization in human HeLa cells assessed as increase in ratio of supernatant faction to pellet fraction at 500 nM after 6 hrs by Western blot analysis; assay type: cell-based
Homo sapiens = species on record: Homo sapiens; experiment: Disruption of microtubule structure in human SKOV3 cells assessed as decrease in density at 100 nM after 24 hrs by DAPI staining based immunofluorescence assay; assay type: cell-based
HUVEC = experiment: Antiangiogenic activity against HUVEC assessed as disruption of capillary-like tube formation at 25 to 50 nM after 12 hrs by inverted microscopic method; assay type: functional, cell-based; details: Homo sapiens
Mus musculus [5] = experiment: Anti-vascular activity in Balb/c nude mouse assessed as inhibition of VEGF-induced capillary blood vessel formation using sc injected matrigel plug supplemented with 100 nM test compound mixed with VEGF and measured after 1 week by matrigel plug assay; assay type: functional, organism-based
Mus musculus [6] = experiment: Anti-vascular activity in Balb/c nude mouse assessed as inhibition of VEGF-induced capillary blood vessel formation by measuring reduction in hemoglobin level using sc injected matrigel plug supplemented with 100 nM test compound mixed with VEGF and measured after 1 week by matrigel plug assay; assay type: functional, organism-based
HeLa [7] = experiment: Cell cycle arrest in human HeLa cells assessed as accumulation at G2/M-phase at 50 to 100 nM after 24 hrs by propidium iodide staining based flow cytometry; assay type: functional
HeLa [8] = experiment: Upregulation of Cyclin-B1 protein expression in human HeLa cells at 50 to 200 nM by Western blot analysis; assay type: functional, cell-based
HeLa [9] = experiment: Induction of histone-H3 phosphorylation in human HeLa cells by Western blot analysis; assay type: cell-based
HeLa [10] = experiment: Induction of apoptosis in human HeLa cells assessed as live cells at 50 nM after 48 hrs by Annexin V-FITC/propidium iodide staining based flow cytometry (reference value: 96.5%); assay type: functional
HeLa [11] = experiment: Induction of apoptosis in human HeLa cells assessed as early apoptotic cells at 50 nM after 48 hrs by Annexin V-FITC/propidium iodide staining based flow cytometry (reference value: 0.7%); assay type: functional
HeLa [12] = experiment: Induction of apoptosis in human HeLa cells assessed as late apoptotic cells at 50 nM after 48 hrs by Annexin V-FITC/propidium iodide staining based flow cytometry (reference value: 2%); assay type: functional
HeLa [13] = experiment: Induction of apoptosis in human HeLa cells assessed as necrotic cells at 50 nM after 48 hrs by Annexin V-FITC/propidium iodide staining based flow cytometry (reference value: 0.9%); assay type: functional
HeLa [14] = experiment: Induction of apoptosis in human HeLa cells assessed as live cells at 100 nM after 48 hrs by Annexin V-FITC/propidium iodide staining based flow cytometry (reference value: 96.5%); assay type: functional
HeLa [15] = experiment: Induction of apoptosis in human HeLa cells assessed as early apoptotic cells at 100 nM after 48 hrs by Annexin V-FITC/propidium iodide staining based flow cytometry (reference value: 0.7%); assay type: functional
HeLa [16] = experiment: Induction of apoptosis in human HeLa cells assessed as late apoptotic cells at 100 nM after 48 hrs by Annexin V-FITC/propidium iodide staining based flow cytometry (reference value: 2%); assay type: functional
HeLa [17] = experiment: Induction of apoptosis in human HeLa cells assessed as necrotic cells at 100 nM after 48 hrs by Annexin V-FITC/propidium iodide staining based flow cytometry (reference value: 0.9%); assay type: functional
HeLa [18] = experiment: Induction of apoptosis in human HeLa cells assessed as live cells at 200 nM after 48 hrs by Annexin V-FITC/propidium iodide staining based flow cytometry (reference value: 96.5%); assay type: functional
HeLa [19] = experiment: Induction of apoptosis in human HeLa cells assessed as early apoptotic cells at 200 nM after 48 hrs by Annexin V-FITC/propidium iodide staining based flow cytometry (reference value: 0.7%); assay type: functional
HeLa [20] = experiment: Induction of apoptosis in human HeLa cells assessed as late apoptotic cells at 200 nM after 48 hrs by Annexin V-FITC/propidium iodide staining based flow cytometry (reference value: 2%); assay type: functional
HeLa [21] = experiment: Induction of apoptosis in human HeLa cells assessed as necrotic cells at 200 nM after 48 hrs by Annexin V-FITC/propidium iodide staining based flow cytometry (reference value: 0.9%); assay type: functional
HeLa [22] = experiment: Induction of apoptosis in human HeLa cells after 48 hrs by Annexin V-FITC/propidium iodide staining based flow cytometry; assay type: functional, cell-based
HeLa [23] = experiment: Upregulation of Bax protein expression in human HeLa cells after 48 hrs by Western blot analysis; assay type: functional, cell-based
HeLa [24] = experiment: Upregulation of p53 protein expression in human HeLa cells after 48 hrs by Western blot analysis; assay type: functional, cell-based
HeLa [25] = experiment: Upregulation of cleaved PARP1 protein expression in human HeLa cells after 48 hrs by Western blot analysis; assay type: functional, cell-based
[26] = Acute toxicity in ICR mouse assessed as survival rate at 95 mg/kg, ip measured on day 14 (reference value: 100%); assay type: organism-based; details: in vivo
[27] = Acute toxicity in ICR mouse assessed as survival rate at 70 mg/kg, ip measured on day 14 (reference value: 100%); assay type: organism-based; details: in vivo
[28] = Acute toxicity in ICR mouse assessed as survival rate at 50 mg/kg, ip measured on day 14 (reference value: 100%); assay type: organism-based; details: in vivo
[29] = Acute toxicity in ICR mouse assessed as survival rate at 35 mg/kg, ip measured on day 14 (reference value: 100%); assay type: organism-based; details: in vivo
[30] = Acute toxicity in ICR mouse assessed as survival rate at 25 mg/kg, ip measured on day 14 (reference value: 100%); assay type: organism-based; details: in vivo
Mus musculus [31] = experiment: Acute toxicity in ICR mouse assessed as death at 25 to 95 mg/kg, ip measured after 2 days; assay type: organism-based; details: in vivo, 48 h
Mus musculus [32] = experiment: Acute toxicity in ICR mouse assessed as death at 25 to 95 mg/kg, ip measured after 1 day; assay type: organism-based; details: in vivo, 24 h
Mus musculus [33] = experiment: Acute toxicity in ICR mouse assessed as death at 25 mg/kg, ip measured after 3 days; assay type: organism-based; details: in vivo, 72 h
Mus musculus [34] = experiment: Acute toxicity in ICR mouse assessed as death at 25 to 50 mg/kg, ip measured after 4 days; assay type: organism-based; details: in vivo, 96 h
Mus musculus [35] = experiment: Acute toxicity in ICR mouse assessed as death at 25 to 50 mg/kg, ip measured after 5 to 14 days; assay type: organism-based; details: in vivo
A2780 [36] = experiment: Antitumor activity against human A2780 cells xenografted in Balb/c nude mouse assessed as tumor volume inhibition at 7.5 mg/kg, ip once in every 2 days measured up to 14 days relative to control; assay type: functional
A2780 [37] = experiment: Antitumor activity against human A2780 cells xenografted in Balb/c nude mouse assessed as isolated tumor weight inhibition at 7.5 mg/kg, ip once in every 2 days measured after 14 days; assay type: functional, organism-based
A2780 [38] = experiment: Antitumor activity against human A2780 cells xenografted in Balb/c nude mouse assessed as tumor weight inhibition at 7.5 mg/kg, ip once in every 2 days measured up to 14 days; assay type: functional, organism-based
Mus musculus [39] = experiment: Toxicity in Balb/c nude mouse xenografted with human A2780 cells assessed as body weight loss at 7.5 mg/kg, ip once in every 2 days measured up to 14 days; assay type: organism-based; details: in vivo
A2780 [40] = experiment: Antitumor activity against human A2780 cells xenografted in Balb/c nude mouse assessed as induction of tumor necrosis at 7.5 mg/kg, ip once in every 2 days measured after 14 days by H and E staining based assay; assay type: functional, organism-based
Mus musculus [41] = experiment: Toxicity in Balb/c nude mouse xenografted with human A2780 cells assessed as abnormality in liver at 7.5 mg/kg, ip once in every 2 days measured after 14 days by H and E staining based assay; assay type: organism-based; details: in vivo, 336 h
Mus musculus [42] = experiment: Toxicity in Balb/c nude mouse xenografted with human A2780 cells assessed as abnormality in kidney at 7.5 mg/kg, ip once in every 2 days measured after 14 days by H and E staining based assay; assay type: organism-based; details: in vivo, 336 h

With COc1ccc([C@H]2[C@H](CO)C(=O)N2c2cc(OC)c(OC)c(OC)c2)cc1O the Activity (Mus musculus [1]) was “Non-Toxic”, the Activity [2] was “Dose-dependent effect” and the Activity (MDA-MB-231) was “Dose-dependent effect”. The inhibition at 48 h, 1 µM [3] was under 50%, the inhibition (Sus scrofa) was “Dose-dependent effect” and the “tubulin polymerization inhibition (active/inactive)” value (HeLa [4]) was “Active”. For the same compound, the Activity (Homo sapiens) was “Active”, the Activity (HUVEC) was “Active” and the inhibition (Mus musculus [5]) was “Active”. For the same compound, the inhibition (Mus musculus [6]) was “Active”, the Activity (HeLa [7]) was “Active” and the Activity (HeLa [8]) was “Active”. The Activity (HeLa [9]) was “Dose-dependent effect”, the Activity (HeLa [10]) was 48.2% and the Activity (HeLa [11]) was 18.6%. The Activity (HeLa [12]) was 20.1%, the Activity (HeLa [13]) was 13% and the Activity (HeLa [14]) was 36.3%. The Activity (HeLa [15]) was 32.9%, the Activity (HeLa [16]) was 24.6% and the Activity (HeLa [17]) was 6.1%. The Activity (HeLa [18]) was 22.6%, the Activity (HeLa [19]) was 36.1% and the Activity (HeLa [20]) was 34.6%. The Activity (HeLa [21]) was 6.7%, the Activity (HeLa [22]) was “Dose-dependent effect” and the Activity (HeLa [23]) was “Dose-dependent effect”. The Activity (HeLa [24]) was “Dose-dependent effect”, the Activity (HeLa [25]) was “Dose-dependent effect” and the survival at 14 day [26] was 20%. It also gave a survival at 14 day [27] of 30%, a survival at 14 day [28] of 90% and a survival at 14 day [29] of 90%. The survival at 14 day [30] was 100%, the Activity (Mus musculus [31]) was “Non-Toxic” and the Activity (Mus musculus [32]) was “Non-Toxic”. The Activity (Mus musculus [33]) was “Non-Toxic”, the Activity (Mus musculus [34]) was “Non-Toxic” and the Activity (Mus musculus [35]) was “Non-Toxic”. For the same compound, the inhibition in vivo at 7.5 mg/kg (A2780 [36]) was 78.9%, the inhibition (A2780 [37]) was “Active” and the inhibition (A2780 [38]) was “Active”. The Activity (Mus musculus [39]) was “Non-Toxic”, the Activity (A2780 [40]) was “Active” and the Activity (Mus musculus [41]) was “Non-Toxic”. The Activity (Mus musculus [42]) was “Non-Toxic”.

From ChEMBL document CHEMBL4251633, “Design, synthesis, biological evaluation and cocrystal structures with tubulin of chiral β-lactam bridged combretastatin A-4 analogues as potent antitumor agents” (Eur J Med Chem, 2018)
